# In patent publication US20160136138A1, “DRUG FOR TREATMENT OF NONALCOHOLIC FATTY LIVER DISEASE” (KOWA COMPANY, LTD., priority 2013, published 2016):
# Experiments:
# [1] = system: KK-A^y mice fed with an MCD diet; test: NASH model using KK-A^y mice fed with methionine-choline-deficient diet; type: in vivo; settings: Compound A 0.25 mg/kg mixed in MCD diet (0.00026%), 16 weeks; scale 0 to 3
# Description: Effects on experimental animals, KK-A^y mice fed with a methionine-choline-deficient diet (MCD diet), which are known to develop fatty liver, a characteristic symptom of NASH (Nakano S. et al., Hepatol Res., 38(10), 1026-39, 2008) were examined.
# As in Example 1, this experiment was conducted using (R)-2-[3-[[N-(benzoxazol-2-yl)-N-3-(4-methoxyphenoxy)propyl ]aminomethyl]phenoxy]butyric acid (Compound A), which is disclosed as Example 85 in Patent Document 1 listed above.
# Male KK-A^y mice (KK-A^y/TaJc1, CLEA Japan, Inc.) were used in the experiment. Beginning at around 12 weeks of age, the mice were freely fed with an MCD diet for 16 weeks to develop NASH. • 2) Grouping:
# The mice were divided into a normal diet group, a control group (fed with an MCD diet), a Compound A 0.25 mg/kg administration group, and a bezafibrate 60 mg/kg administration group in such a way that there was no difference in weight between the groups. • 3) Drug administration:
# The doses were mixed in the feed. The control group was fed with an MCD diet containing no drug. […]
# After the administration was completed, the livers were removed from the mice under pentobarbital sodium (50 mg/kg) anesthesia. […] Depending on the grade, the fatty liver was scored on a scale of 0 to 3 based on the following criteria. […]
# [2] = system: LDL receptor knockout mice NASH model; test: Western diet-fed LDL receptor knockout mice NASH model; type: in vivo; settings: 12 weeks, vs control
# From the text: Effects on Western diet-fed LDL receptor knockout mice (Non Patent Document 4), which are known to develop fatty liver and hepatic inflammation, characteristic symptoms of NASH were examined. […] Male LDL receptor knockout mice ([…], Jackson Laboratories) were used in the experiment. Beginning at around 8 weeks of age, the mice were freely fed with Teklad Custom Research Diet (TD.88137, Harlan Teklad) as a Western diet for 13 weeks to develop NASH. • 2) Grouping: After 1 week of the Western diet feeding, the mice were subjected to blood sampling and weighing. The mice were divided into a control group (0.5% methyl cellulose aqueous solution), a Compound A 0.5 mg/kg administration group, and a fenofibrate 100 mg/kg administration group in such a way that there was no difference in plasma lipid level and weight between the groups. […] The administration period was 12 weeks. After the administration was completed, the livers were removed from the mice under pentobarbital sodium (50 mg/kg) anesthesia. The livers were fixed with paraformaldehyde and then subjected to the preparation of hematoxylin-eosin stained samples and immunostained samples for CD68 detection. In a blind study setting, using the hematoxylin-eosin stained samples, ballooning of hepatocytes was scored based on the following criteria (Kleiner et al. Hepatology 41, 1313-21, 2005). No balloon cells: 0 Few balloon cells: 1 Many balloon cells or ballooning: 2 The CD68 positive area in liver was measured with an image analysis system (WinROOF) in a blind study. The statistical analysis was performed using Stat […] Information Technology Inc.) (Ver. 1.1). Dunnett's test (N=14-15) was used for comparison with the control group, in which a significant difference with p<0.05 is indicated by the symbol *, and a significant difference with p<0.001 is indicated by the symbol ***.
Compound,steatosis score [1],"CD68 positive area in liver, reduction rate ([2]; Compound A 0.5 mg/kg orally once a day) [%]","ballooning of hepatocytes (score) ([2]; Compound A 0.5 mg/kg orally once a day, Dunnett's test)","CD68 positive area in liver, reduction rate ([2]; fenofibrate 100 mg/kg orally once a day) [%]"
"CC[C@@H](Oc1cccc(CN(CCCOc2ccc(OC)cc2)c2nc3ccccc3o2)c1)C(=O)O [Compound A, (R)-2-[3-[[N-(benzoxazol-2-yl)-N-3-(4-methoxyphenoxy)propyl]aminomethyl]phenoxy]butyric acid]",0,81,significant suppression of ballooning of hepatocytes,
"CC(C)OC(=O)C(C)(C)Oc1ccc(C(=O)c2ccc(Cl)cc2)cc1 [fenofibrate, reference compound]",,,,73
